Experimental data as given in patent US5563130A, “Methods for inhibiting angiogenesis, proliferation of endothelial or tumor cells and tumor growth” (American Cyanamid Company, priority 1994, dated 1996).

Columns and labels:
Assay type in all cases: cell-based
[1] = tested on: A2780S; assay: Antiproliferative activity in human ovarian tumor cell line A2780S; conditions: PROTOCOL 1 and PROTOCOL 2
Description: (§1) PROTOCOL 1, 2, and 3 are described in greater detail hereinbelow. In general, according to PROTOCOLS 1 and 2, the target ABAE and/or Human Tumor cells are exposed to the compound of Formula I for 48 hours. PROTOCOL 3 exposes ABAE cell to the compound for 4 days. A detailed description of the protocol is as follows:
(§2) Antiproliferative Activity in Human Tumor and Adult Bovine Aortic Endothelial (ABAE) Cell Lines
(§3) The antiproliferative activity of the compounds of Formula I of the present invention is evaluated in a panel comprised of human tumor cell lines and an adult bovine aortic endothelial cell line (ABAE). The human tumor cell lines are from:
(§4) All cell lines are maintained in log phase in RPMI 1640 media, supplemented with 5% fetal calf serum, penicillin/streptomycin and 2 mM L-glutamine. Cultures are renewed after 20 passages with cells from a fresh stock of batch-frozen early passage cells. Cell lines are routinely checked for mycoplasma contamination (Genprobe). In a laminar flow hood, cells (1-5×10^4) are plated into 96-well microtiter plates in a volume of 0.1 ml/well with a bulk microtiter dispenser (Denley). […] At this concentration, dimethylsulfoxide has no effect on cell growth. Compounds are added using a Tomtec dispenser which simultaneously dispenses from one 96-well plate, containing the drug dilutions, to the plates containing the cells. After two days of continuous drug exposure, 50% cold trichloroacetic acid (TCA) is added to 10% final concentration to fix the cells, and after 60 minutes at 4° C., the TCA is aspirated and the plates are washed 5 times with deionized water using a microtiter plate washer. The number of cells on the plate are quantitated using a protein dye-binding assay (Monks et al., 1991). A 0.4% solution of the dye, sulforhodamine B, in glacial acetic acid is added to the plates, and the plates are washed 5 times with 1% glacial acetic acid using the automatic plate washed. The bound stain is solubilized with 0.1 ml of 10 mM Tris base. The optical densities are read from an automatic spectrophotometric plate reader (Dynatech) directly to a main frame computer (VAX 8600).
(§5) Positive controls, that include standard chemotherapeutic drugs (i.e., adriamycin, cisplatin, etc.), are included in every experiment.
(§6) Background optical density measurements (complete media-cells, and complete media+drug-cells) are automatically subtracted from the appropriate control and test wells. Mean values and standard errors are determined from duplicate wells. A measure is also made of the optical density at time when the drugs are added. The number of cells after treatment (P), as % of control, is calculated for every concentration of drug, as follows: [formula] wherein: T is optical density measurement for treated cells after 48 hours;
(§7) C is optical density measurement for untreated cells after 48 hours;
(§8) Co is optical density measurement for cells at the time of drug addition.
(§9) IC50 of growth inhibition is calculated from the sets of P values using the RS-1 data package (BBN Software).
(§10) The antiproliferative activity of the compounds of Formula I is evaluated in a panel comprised of human tumor cell lines and an adult bovine aortic endothelial cell line (ABAE) as listed in PROTOCOL 1. This assay is a modification of PROTOCOL 1. The modifications include:
(§11) 1) each concentration for each compound is tested in a single well;
(§12) 2) compounds are tested at 20, 4, 0.8, 0.16 microgram/ml and additionally in some experiments at 100 and 0.32 microgram/ml;
(§13) 3) samples are pipetted into a 96-well plate for each of the cell lines by a Beckman Biomek 1000 SL robot;
(§14) 4) after fixing with TCA each well is washed with 0.35 ml distilled water twice, not five times;
(§15) 5) after staining with sulforhodamine B each well is washed 3 times, not five times; […]

[2] = tested on: A2780/DDP; assay: Antiproliferative activity in human ovarian tumor cell line A2780/DDP; conditions: PROTOCOL 1 and PROTOCOL 2
Description: as §1, §2, §3, §4, §5, §6, §7, §8, §9, §10, §11, §12, §13, §14, §15

[3] = tested on: MIP; assay: Antiproliferative activity in human colon tumor cell line MIP; conditions: PROTOCOL 1 and PROTOCOL 2
Description: as §1, §2, §3
(§16) 2) Colon tumors: MIP, CaCo2, and SW620.
as §4, §5, §6, §7, §8, §9, §10, §11, §12, §13, §14, §15

[4] = tested on: CACO2; assay: Antiproliferative activity in human colon tumor cell line CACO2; conditions: PROTOCOL 1 and PROTOCOL 2
Description: as §1, §2, §3, §16
All cell lines are maintained in log phase in RPMI 1640 media, supplemented with 5% fetal calf serum, penicillin/streptomycin and 2 mM L-glutamine. […] The number of cells on the plate are quantitated using a protein dye-binding assay (Monks et al., 1991). […] The optical densities are read from an automatic spectrophotometric plate reader (Dynatech) directly to a main frame computer (VAX 8600). […]
Background optical density measurements (complete media-cells, and complete media+drug-cells) are automatically subtracted from the appropriate control and test wells. Mean values and standard errors are determined from duplicate wells. […]

[5] = tested on: HTB 16; assay: Antiproliferative activity in human tumor cell line HTB 16; conditions: ovarian tumor line; PROTOCOL 1 and PROTOCOL 2
Description: as §1, §2, §3, §4, §5, §6, §7, §8, §9, §10, §11, §12, §13, §14, §15

[6] = tested on: SW620; assay: Antiproliferative activity in human colon tumor cell line SW620; conditions: PROTOCOL 1 and PROTOCOL 2
Description: as §1, §2, §3, §16, §4, §5, §6, §7, §8, §9, §10, §11, §12, §13, §14, §15

[7] = tested on: Human Tumor Cell lines; assay: Antiproliferative activity in panel of human tumor cell lines
Description: as §1, §2, §3, §16, §4, §5, §6, §7, §8, §9, §10, §11, §12, §13, §14, §15

## C=CCN(CC=C)CC(=O)Nc1ccc2c(c1O)C(=O)C1=C(O)[C@]3(O)C(=O)C(C(N)=O)=C(O)[C@@H](N(C)C)C3CC1C2.Cl.Cl (stereo partly drawn) [Example 2]
[1]
  A2780S IC50: 1.5 µg/mL
[2]
  A2780/DDP IC50: 4.0 µg/mL
[3]
  MIP IC50: 4.0 µg/mL
[4]
  CACO2 IC50: 4.0 µg/mL
[5]
  HTB 16 IC50: 1.5 µg/mL
[6]
  SW620 IC50: 1.5 µg/mL
[7]; FIG. 2, 6 human tumor cell lines, highest concentrations
  inhibition of cell growth at the highest concentrations: < 100%
[7]; average over the tested human tumor cell lines
  AVERAGE IC50 FOR TUMOR CELL LINES: 2.75 µg/mL
[7]; even at the highest concentration
  Dead floating cells: not observed
